We go through 14 compounds from US11629105B2, “Plant treatment composition” (Croda International Plc, priority 2016, dated 2023).

Where two headings read alike, the source gives them in different places.

Series [1] can be described thus: Stability of emulsion of urea derivative solution with ATLOX 4991. Type of series: physicochemical.
How the values of series [2] were obtained: The solubility of other substituted ureas and substituted thioureas was tested in this solvent.
Series [3] is described as follows: Water solubility of solvents (OECD 105). Type of series: physicochemical. Particulars: solvent in water; for solubility: water, thermodynamic from solid.
Series [4] is described as follows: Solvent screening for ability to dissolve diphenyl urea (DPU). Type of series: physicochemical. To be noted: solubility of diphenyl urea (DPU) in the named solvent.
Setting [5] is: 2% w/w urea derivative in AGNIQUE AMD10.

For the compound `CCN(C(=O)N(CC)c1ccccc1)c1ccccc1` [1,3-diethyl-1,3-diphenyl urea], the “Emulsion with ATLOX 4991 stable? (4 wks ambient)” value (“Emulsion with ATLOX 4991 stable?” for short) in series [1] is on record as “Yes”. Moreover, the “Fully Soluble in AGNIQUE AMD10? (2% w/w urea derivative)” value in series [2] (setting [5]) is “Yes”.

Regarding `CCNC(=O)NCC` [1,3-diethylurea], the “Emulsion with ATLOX 4991 stable?” value in series [1] is on record as “Yes”. For the same compound, in series [2], the “Fully Soluble in AGNIQUE AMD10? (2% w/w urea derivative)” value is “Yes”.

With `CCCCCCCCCCCCN1CCCC1=O` [1-Dodecyl-2-pyrrolidone, 1-dodecyl-2-pyrrolidone], the solubility (commonly the dissolved amount per volume that the medium holds) in series [3] is less than 2000 µg/mL.

In the case of `CCCCCCCCCC(=O)N(C)C` [AGNIQUE ® AMD10, Capric acid dimethylamide], in series [3], the “Water solubility (OECD 105)” value was 574 µg/mL and the solubility is less than 1000 µg/mL.

As to `CCCCCCCC(=O)OC` [AGNIQUE ® ME890, Methyl octanoate], the “DPU Solubility comments” value in series [4] is “Effectively insoluble”.

Consider `CCCCOC(=O)CCCCC(=O)OCCCC` [CETIOL ® B, Dibutyladipate], for which the “DPU Solubility comments” value in series [4] was “Effectively insoluble”.

`CC(O)COc1ccccc1` (stereo not drawn) [DOWANOL ™ PPh, 1-phenoxypropan-2-ol]: the “DPU Solubility comments” value in series [4] was “Effectively insoluble”.

For the compound `CCCCOC(C)COC(C)COC(C)CO` (stereo not drawn) [DOWANOL ™ TPnB, Tripropylene glycol n-Butyl ether], the “DPU Solubility comments” value in series [4] is “Effectively insoluble”.

Take `O=C(NCO)NCO` [N,N′-bis(hydroxymethyl) urea]: in series [2], the “Fully Soluble in AGNIQUE AMD10? (2% w/w urea derivative)” value was “No” and the “solubility in AGNIQUE AMD10” value is on record as less than 2 % w/w.

As to `CCCCNC(=S)NCCCC` [N,N′-dibutylthiourea], the “Emulsion with ATLOX 4991 stable?” value in series [1] is listed as “Yes”. Further, the “Fully Soluble in AGNIQUE AMD10? (2% w/w urea derivative)” value in series [2] is “Yes”.

Turning to `O=C(NC1CCCCC1)NC1CCCCC1` [N,N′-dicyclohexyl urea], the “Fully Soluble in AGNIQUE AMD10? (2% w/w urea derivative)” value in series [2] (setting [5]) was “No”.

As to `O=C1NCCCN1` [N,N′-trimethylene urea], in series [2], the “Fully Soluble in AGNIQUE AMD10? (2% w/w urea derivative)” value is given as “No” and the “solubility in AGNIQUE AMD10” value is listed as less than 2 % w/w.

`CCCCCCCCN1CCCC1=O` [N-octylpyrrolidone] registered a solubility in series [3] of less than 2000 µg/mL.

In the case of `NC(=O)Nc1ccccc1` [N-phenyl urea], the “Emulsion with ATLOX 4991 stable?” value in series [1] is given as “Yes”. In addition, in series [2], the “Fully Soluble in AGNIQUE AMD10? (2% w/w urea derivative)” value is recorded as “Yes”.
